# Reference: patent publication US7501113B2, “Aerosol formulations and aerosol delivery of buprenorphine” (priority 2003, dated 2009)
# Where “and” joins values, the source holds several entries; their conditions need not be identical. Equal entries are not always repeated. Where two headings read alike, the source gives them in different places.
# Experiments:
# [1] = 5 mg/sec
# [2] = Aerosol particle size determination, 10-stage MOUDI at 30 L/min with USP throat; format: physicochemical; settings: for MMAD / Material Balance / Wall Losses / Throat Deposition / Throat Depositions: 5 mg/sec
# Experimental: Aerosol particle size was determined using the 10-stage MOUDI operated at 30 L/min. The sample foils were placed in beakers, 10 mL of sample solvent was added, and the beakers swirled thoroughly. For the USP throat, 10 mL of sample solvent was added and shaken thoroughly. Wall losses were assessed by washing the MOUDI walls with a Kimwipe dipped in sample solvent. The same 10 mL of mobile phase was used to wash the walls of all the stages. The collected samples were analyzed.
# (§1) Aerosol particle size was determined using the 10-stage MOUDI operated at 30 L/min. […] For the USP throat, 5 mL of sample solvent was added and shaken thoroughly. Wall losses were assessed by washing the MOUDI walls with a Kimwipe dipped in sample solvent. The same sample solvent was used to wash the walls of all the stages. The collected samples were analyzed using the assay method.
# Aerosol particle size was determined using the 10-stage MOUDI operated at 30 L/min. For MOUDI runs 1-4, the sample foils were placed in beakers, 5 mL of sample solvent was added, and the beakers swirled thoroughly. For the USP throat, 5 mL of sample solvent was added and shaken thoroughly. Wall losses were assessed by washing the MOUDI walls with a Kimwipe dipped in sample solvent. The same 5 mL of sample solvent was used to wash the walls of all the stages. The collected samples were analyzed using the assay method. For MOUDI runs 5-9, the procedure was the same as above except distilled deionized water was used in place of the sample solvent. This was done to allow for simultaneous PG particle size analysis. Two actuations were used for all MOUDI runs with the exception of MOUDI runs 1 and 7.
# as §1, with “10” for “5”
# as §1
# [3] = Emitted dose and fine particle fraction; format: physicochemical; settings: formulation % w/v: buprenorphine 0.2, buspirone 2.0, cyclobenzaprine 2.0, triazolam 0.1, zolpidem 0.2; for Avg. Emitted Dose per Actuation: 10 second actuations, average of n=3-5 runs; for Avg. FPF: fine particle fraction = percent of total dose collected less than 5.6 microns, n=3-5 runs
# [4] = 2 % in PG
# Experimental: (§2) Buspirone was dissolved in acidic and basic solutions and heated to 50 degrees Celsius for 1 hour to promote acid and base catalyzed hydrolysis. Buspirone was also subjected to peroxide with heating to 50 degrees Celsius for 1 hour to promote oxidation. As a final stability check, solid buspirone was subjected to heating with a differential scanning calorimeter. Conditions were optimized to produce thermal degradation products by heating to 350 degrees Celsius.
# (§3) Dose capture determinations were conducted (Table 1). For dose capture runs 1-6, the device was actuated once, the aerosol collected in acidified water, diluted to 40 mL. Runs 7-12 were performed as above, except distilled de-ionized water was used instead of acidified water. For runs 13-33, the device was actuated 4 times, the aerosol was collected in 8 mL of sample solvent, and analyzed for buspirone and degradation products using the “stability indicating” assay. Intact buspirone was calculated. The extent of degradation was evaluated by assuming that the degradation products had similar extinction coefficients as the parent at the wavelength of interest.
# (§4) After evaluation of the data, it was determined that buspirone should be thermally stressed with a DSC to produce a degradation profile thought to be more representative of buspirone degradation after aerosolization via the CAG. In doing so, thermal degradation products were produced under the conditions stated above. This provided an indication of retention times for potential degradation products of buspirone after aerosolization using the CAG.
# (§5) Buprenorphine was subjected to heating with a differential scanning calorimeter.
# (§6) Dose capture determinations were conducted.
# (§7) Conditions were optimized to produce thermal degradation products by heating to 350 degrees Celsius.
# (§8) Dose capture determinations were conducted (Table 6). For dose capture runs 1-3, the device was actuated once, the aerosol collected in 10 mL of sample solvent and analyzed using the “stability indicating” method. Runs 4-9 were performed as above except the device was actuated twice and collected in 10 mL of sample solvent. […] The extent of degradation was evaluated by assuming that the degradation products had similar extinction coefficients as the parent at the wavelength of interest.
# (§9) Thermal degradation products were produced under the conditions stated above.
# (§10) Conditions were optimized to produce thermal degradation products by heating to 300 degrees Celsius.
# (§11) Dose capture determinations were conducted. […] The extent of degradation was evaluated by assuming that the degradation products had similar extinction coefficients as the parent at the wavelength of interest.
# [5] = Degradation determination after aerosolization (stability indicating assay); settings: zolpidem 0.2% in PG, target resistance 0.600 ohms, runs 5-9
# Experimental: as §2, §3, §4, §5, §6, §7, §8, §9, §10, §11
# [6] = triazolam 0.1% in PG, target resistance 0.590 ohms
# [7] = triazolam 0.1% in PG, target resistance 0.595 ohms
# [8] = triazolam 0.1% in PG, target resistance 0.600 ohms
# [9] = triazolam 0.1% in PG, target resistance 0.605 ohms, runs 5-9
# [10] = buspirone 0.5% in PG, target resistance 0.600 ohms
# [11] = buspirone 0.5% in PG, target resistance 0.610 ohms, monohydrochloride
# [12] = buspirone 2.0% in PG, target resistance 0.590 ohms
# [13] = buspirone 2.0% in PG, target resistance 0.595 ohms
# [14] = buspirone 2.0% in PG, target resistance 0.600 ohms, monohydrochloride
# [15] = buspirone 2.0% in PG, target resistance 0.605 ohms, runs 11-15, listed as buspirone, monohydrochloride
# [16] = buspirone 2.0% in PG, target resistance 0.605 ohms, runs 11-15, monohydrochloride
# [17] = buspirone 2.0% in PG, target resistance 0.610 ohms
# [18] = zolpidem 0.2% in PG, target resistance 0.590 ohms, 1 actuation
# [19] = zolpidem 0.2% in PG, target resistance 0.600 ohms, 1 actuation
# [20] = cyclobenzaprine 2.0% in PG, target resistance 0.595 ohms, 1 actuation
structure (smiles),measurement,setting,value
"Cc1nnc2n1-c1ccc(Cl)cc1C(c1ccccc1Cl)=NC2 [Triazolam, 8-chloro-6-(2-chlorophenyl)-1-methyl-4H-[1,2,4]triazolo[4,3-a][1,4]benzodiazepine]",Dose Capture,"[1]; triazolam 0.1% in PG, target resistance 0.605 ohms, about 90 J, runs 10-14, mean of 15",90^2%
same,Dose Capture,"[1]; triazolam 0.1% in PG, target resistance 0.605 ohms, about 90 J, runs 10-14, mean of 15, listed as triazolam",90%
same,Dose Capture,"[1]; triazolam 0.1% in PG, target resistance 0.610 ohms",86%
same,MMAD,[2]; [6],0.847 microns and 0.642^3 microns
same,Material Balance,[2]; [6],74.08% and 108.22^3%
same,Wall Losses,[2]; [6],15.51^3%
same,Throat Deposition,"[2]; triazolam 0.1% in PG, target resistance 0.590 ohms, approximately 70 J, runs 1 and 2",33.14% and 39.28^3%
same,Throat Deposition,"[2]; triazolam 0.1% in PG, target resistance 0.590 ohms, approximately 70 J, runs 1 and 2, listed as triazolam",greater than 30%
same,MMAD,[2]; [7],0.414^3 microns
same,Material Balance,[2]; [7],98.50^3%
same,Throat Deposition,[2]; [7],3.66^3%
same,Wall Losses,[2]; [7],6.69^3%
same,MMAD,[2]; [8],0.378^3 microns
same,Material Balance,[2]; [8],104.22^3%
same,Throat Deposition,[2]; [8],2.96^3%
same,Wall Losses,[2]; [8],11.04^3%
same,MMAD,[2]; [9],0.511^3 microns and 0.431^3 microns and 0.483 microns and 0.444^3 microns and 0.446^3 microns
same,Material Balance,[2]; [9],102.10^3% and 96.32^3% and 107.02% and 91.60^3% and 101.09^3%
same,Throat Deposition,[2]; [9],2.43^3% and 1.35^3% and 2.87% and 2.47^3% and 1.97^3%
same,Throat Deposition,"[2]; triazolam 0.1% in PG, target resistance 0.605 ohms, runs 5-9, listed as triazolam",less than 3%
same,average MMAD,"[2]; triazolam 0.1% in PG, target resistance 0.605 ohms, approximately 90 J, runs 5-9",approximately 0.46 microns
same,Avg. Emitted Dose per Actuation,[3],46.46 µg
same,Avg. FPF,[3],86.16 % of Emitted
"Cl.O=C1CC2(CCCC2)CC(=O)N1CCCCN1CCN(c2ncccn2)CC1 [Buspirone, 8-[4-[4-(2-pyrimidinyl)-1-piperazinyl]butyl]-8-azaspiro[4,5]decane-7,9-dione monohydrochloride]",Dose Capture,"[1]; buspirone 2.0% in PG, target resistance 0.595 ohms, runs 13-15, mean",102^1%
same,Dose Capture,"[1]; buspirone 2.0% in PG, target resistance 0.600 ohms, runs 24-28, mean",105^3%
same,Dose Capture,"[1]; buspirone 2.0% in PG, target resistance 0.605 ohms, about 90 J, runs 29-33, mean, listed as buspirone, monohydrochloride",104%
same,Dose Capture,"[1]; buspirone 2.0% in PG, target resistance 0.605 ohms, about 90 J, runs 29-33, mean, monohydrochloride",104^3%
same,Dose Capture,"[1]; buspirone 2.0% in PG, target resistance 5.90 ohms, runs 7-9, mean of 3",9^1%
same,average degradation of the active,[4],0.25%
same,"major degradation peak, share of degradation observed",[4],approximately 0.09%
same,"other 8 degradation peaks, each",[4],approximately 0.02%
same,MMAD,[2]; [10],0.31 microns
same,Material Balance,[2]; [10],100%
same,Throat Deposition,[2]; [10],7%
same,Wall Losses,[2]; [10],2%
same,Wall Losses,"[2]; buspirone 0.5% in PG, target resistance 0.610 ohms",4%
same,MMAD,[2]; [11],0.30 microns and 0.47 microns and 0.32 microns and 0.29 microns
same,Throat Deposition,[2]; [11],10% and 3% and 6% and 4%
same,recovered buspirone found on the throat,"[2]; buspirone 2.0% in PG, energies approximately 77 J, runs 8 and 10",greater than 40%
same,MMAD,[2]; [12],0.54 microns
same,Material Balance,[2]; [12],11%
same,Throat Deposition,[2]; [12],44%
same,Wall Losses,[2]; [12],6%
same,MMAD,[2]; [13],0.46 microns
same,Material Balance,[2]; [13],91%
same,Throat Deposition,[2]; [13],44%
same,Wall Losses,[2]; [13],1%
same,MMAD,[2]; [14],0.30 microns and 0.48 microns
same,Material Balance,[2]; [14],100% and 98%
same,Wall Losses,[2]; [14],2% and 4%
same,MMAD,[2]; [15],approximately 0.30 microns
same,Material Balance,[2]; [15],exceeded 100%
same,Throat Deposition,[2]; [15],less than 5%
same,MMAD,[2]; [16],0.31 microns and 0.30 microns and 0.29 microns and 0.32 microns
same,Material Balance,[2]; [16],105% and 108% and 102% and 107% and 111%
same,Throat Deposition,[2]; [16],4% and 1% and 3% and 2%
same,Wall Losses,[2]; [16],4% and 3% and 9%
same,MMAD,[2]; [17],0.30 microns
same,Material Balance,[2]; [17],98%
same,Throat Deposition,[2]; [17],14%
same,Wall Losses,[2]; [17],1%
same,Avg. Emitted Dose per Actuation,[3],1010.44 µg
same,Avg. FPF,[3],91.60 % of Emitted
"Cc1ccc(-c2nc3ccc(C)cn3c2CC(=O)N(C)C)cc1 [Zolpidem, N,N,6-Trimethyl-2-(4-methylphenyl)-imidazo[1,2-a]pyridine-3-acetamide]",Percent Degradation,[5],0.26% and 0.02% and 0.00% and 0.03% and 0.16%
same,average degradation,[5],less than 0.1%
same,MMAD,[2]; [18],0.464 microns
same,Material Balance,[2]; [18],64.51%
same,Throat Deposition,[2]; [18],5.36%
same,Wall Losses,[2]; [18],1.68%
same,MMAD,[2]; [19],0.481 microns and 0.459 microns and 0.420 microns and 0.421 microns and 0.404 microns and 0.431 microns
same,Material Balance,[2]; [19],100.06% and 90.77% and 97.74% and 95.83% and 101.56% and 93.04%
same,Throat Deposition,[2]; [19],3.97% and 0.12% and 0.62% and 1.27% and 0.21% and 1.95%
same,Wall Losses,[2]; [19],6.18% and 2.67% and 3.55% and 3.85% and 0.90% and 1.35%
same,average MMAD,"[2]; zolpidem 0.2% in PG, target resistance 0.600 ohms, approximately 75 J, runs 5-8",approximately 0.45 microns
same,Avg. Emitted Dose per Actuation,[3],92.55 µg
same,Avg. FPF,[3],93.25 % of Emitted
"CN(C)CCC=C1c2ccccc2C=Cc2ccccc21 [Cyclobenzaprine, 3-(5H-Dibenzo[a,d]cyclohepten-5-ylidene)-N,N-dimethyl-1-propanamine]",Dose Capture,"[1]; cyclobenzaprine 2.0% in PG, target resistance 0.595 ohms, about 73 J, 1 actuation, listed as cyclobenzaprine",> 95%
same,Dose Capture,"[1]; cyclobenzaprine 2.0% in PG, target resistance 0.610 ohms, 1 actuation",109.93%
same,average degradation,[4],less than 0.3%
same,MMAD,[2]; [20],0.330 microns and 0.329 microns and 0.343 microns and 0.333 microns and 0.336 microns and 0.256^2 microns
same,Material Balance,[2]; [20],92.04% and 91.03% and 93.48% and 99.10% and 93.99% and 61.98^2%
same,Throat Depositions,[2]; [20],3.45% and 3.39% and 5.55% and 2.59% and 3.09% and 4.89^2%
same,Wall Losses,[2]; [20],0.81% and 1.12% and 2.33% and 1.98% and 2.26% and 1.99^2%
same,Throat Depositions,"[2]; cyclobenzaprine 2.0% in PG, target resistance 0.595 ohms, 1 actuation, listed as cyclobenzaprine",less than 4%
same,average MMAD,"[2]; cyclobenzaprine 2.0% in PG, target resistance 0.595 ohms, approximately 71 J, runs 1-6 excluding run 3",approximately 0.33 microns
same,Avg. Emitted Dose per Actuation,[3],836.16 µg
same,Avg. FPF,[3],94.35 % of Emitted
